Data: patent publication US20070270408A1, “Pharmaceutical use of substituted pyrazolo[1,5-a]pyrimidines” (Novo Nordisk A/S, priority 2003, published 2007)

Biological target: T1, h-11βHSD1 (Homo sapiens, UniProt P28845)
T1 construct: made in house
Experiment: 11βHSD1 enzyme assay (SPA)
Type: biochemical
Settings: yeast extract with h-11βHSD1, 120 nM 3H-cortisone, 4 mM β-NADPH, 60 min at 30° C.
Experimental: Pharmacological Methods 11βHSD1 Enzyme Assay Materials
^3H-cortisone and anti-rabbit Ig coated scintillation proximity assay (SPA) beads were purchased from Amersham Pharmacia Biotech, β-NADPH was from Sigma and rabbit anti-cortisol antibodies were from Fitzgerald. An extract of yeast transformed with h-11βHSD1 (Hult et al., FEBS Lett, 441, 25 (1998)) was used as the source of enzyme. The test compounds were dissolved in DMSO (10 mM). All dilutions were performed in a buffer containing 50 mM TRIS-HCl (Sigma Chemical Co), 4 mM EDTA (Sigma Chemical Co), 0.1% BSA (Sigma Chemical Co), 0.01% Tween-20 (Sigma Chemical Co) and 0.005% bacitracin (Novo Nordisk A/S), pH=7.4. Optiplate 96 wells plates were supplied by Packard. The amount of ^3H-cortisol bound to the SPA beads was measured on TopCount NXT, Packard.
h-11βHSD1, 120 nM ^3H-cortisone, 4 mM β-NADPH, antibody (1:200), serial dilutions of test compound and SPA particles (2 mg/well) were added to the wells. The reaction was initiated by mixing the different components and was allowed to proceed under shaking for 60 min at 30° C. […] Data was analysed using GraphPad Prism software.

T1 sequence (P28845 whole entry): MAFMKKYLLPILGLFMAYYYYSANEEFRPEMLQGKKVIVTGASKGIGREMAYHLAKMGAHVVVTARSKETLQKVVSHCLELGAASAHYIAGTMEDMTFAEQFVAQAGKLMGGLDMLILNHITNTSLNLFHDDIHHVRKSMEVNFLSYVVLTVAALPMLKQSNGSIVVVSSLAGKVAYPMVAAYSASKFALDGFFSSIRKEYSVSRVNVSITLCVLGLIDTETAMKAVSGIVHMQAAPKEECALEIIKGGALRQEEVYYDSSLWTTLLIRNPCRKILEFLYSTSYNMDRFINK

SMILES | IC50 [µM]
Cc1cc(C(F)(F)F)n2nc(C(=O)N3CCCCC3)cc2n1 [Example 3, (5-methyl-7-trifluoromethyl-pyrazolo[1,5-a]pyrimidin-2-yl)-(piperidin-1-yl)methanone] | 4.7
Cc1cc(-c2ccccc2)n2nc(C(=O)N(C)C3CCCCC3)cc2n1 [Example 4] | 0.34
